According to a melting point compilation (Tetko et al.; mined from patent text by program, amines drawn as free bases though some values may be those of a salt):

Q: For CCOC(=O)n1c(C)c(Cc2ccc(Cl)cc2Cl)c2nc(C#N)ccc21, which melting point is on record?
A: 112 to 113 °C

Q: For Oc1ccc(Nc2ncc3ncc(Cl)cc3n2)cc1, which melting point is on record?
A: 232 to 234 °C

Q: Which melting point does the source give for COc1ccc2c(-c3cnc4[nH]cc(C(=O)N[C@H](C)C(=O)N5CC(C#N)C5)c4n3)nn(C)c2c1 here?
A: 220 to 240 °C

Q: Which melting point does the source give for COC1CCC2(C)C(=CC(=O)C3C2CCC2(C)C(OC(C)=O)CCC32)C1 (configuration not stated) here?
A: 168 to 170 °C

Q: Which melting point does the source give for CCOCCOc1cc(C(F)(F)F)cc(N(N)C(=CNS(C)(=O)=O)[N+](=O)[O-])n1 here?
A: 153 °C

Q: Which melting point does the source give for CCOC(=O)CCc1cn(-c2ccc(N)cn2)nc1C(C)C here?
A: 75 to 76 °C

Q: For CCCc1c(OCC(O)COc2ccc3c(=O)cc(CCC(=O)O)oc3c2CCC)ccc(C(C)=O)c1O (configuration not stated), which melting point is on record?
A: 79 to 80 °C

Q: For Fc1ccc2c(C3=CCN(CCC4OCCc5cc(Br)ccc54)CC3)c[nH]c2c1 (configuration not stated), which melting point is on record?
A: 184 to 186 °C

Q: With Cc1nc(O)c2[nH]nc(C(C)C)c2n1 as the compound, how does the melting point read?
A: > 250 °C

Q: For CCN(c1ccc(SC)cc1C#N)S(=O)(=O)c1ccc(C)cc1, which melting point is on record?
A: 136 to 137 °C

Q: For N#CC1=Nc2nc(C3CCCC3)[nH]c2C2=N[C@H](Cc3ccccc3)CN12, which melting point is on record?
A: 140 to 142 °C

Q: Which melting point does the source give for c1ccc2c(c1)Cn1cccc1C1(CCNCC1)O2 here?
A: 168 to 170 °C

Q: Which melting point does the source give for COc1ccc(CN(C)CCCOc2ccc(NC(=O)c3cccc4c(=O)c5cccc(C)c5[nH]c34)cc2)cc1OC here?
A: 160 °C

Q: Which melting point does the source give for Cc1cc(C(C)C)c(S(C)(=O)=O)cc1C(=O)N=C(N)N here?
A: 220 to 223 °C

Q: With CS(=O)(=O)Nc1ccc(CCN2CCc3ccc(NS(C)(=O)=O)cc3CC2)cc1 as the compound, how does the melting point read?
A: 184 to 187 °C

Q: With CCCCCCC(=O)OCCOC(=O)NC1(C(=O)O)CC1 as the compound, how does the melting point read?
A: 113 °C

Q: For CC(=O)c1nc(Cl)ccc1N, which melting point is on record?
A: 108 to 110 °C

Q: With CCN1C(=O)C(C)(C)C(=O)N(C)c2cc(CN(CCn3ccc4oc(C)cc4c3=O)Cc3ccc(C=O)cc3)ccc21 as the compound, how does the melting point read?
A: 153 to 155 °C

Q: For N#Cc1csc(Oc2ccc(-c3ccc(Oc4scc(C#N)c4C#N)cc3)cc2)c1C#N, which melting point is on record?
A: 262 to 264 °C

Q: Which melting point does the source give for CCCc1c(OCC(=N)OCC)ccc(C(C)=O)c1O here?
A: 50 to 52 °C

Q: Which melting point does the source give for O=[N+]([O-])c1ccc(Oc2ccc3ccc(Oc4ccc([N+](=O)[O-])c(O)c4)cc3c2)cc1O here?
A: 218 to 220 °C

Q: With Cc1cccc(CCCCCCCCC(=O)NO)c1 as the compound, how does the melting point read?
A: 49 to 50 °C

Q: For CC(C)OC(=O)c1cc(-c2nn(C)c(C(F)(F)F)c2C(F)F)c(F)cc1Cl, which melting point is on record?
A: 57 °C

Q: Which melting point does the source give for CCOC(=O)Cc1nn(C/C=C/c2cccc(C(F)(F)F)c2F)c(=O)c2ccccc12 here?
A: 104 to 106 °C

Q: With CC(Oc1ccccc1Cl)C(=O)OC1CC(O)C=C2C=CC(C)C(CCC3CC(O)CC(=O)O3)C21 (mixture of isomers) as the compound, how does the melting point read?
A: 152 to 155 °C

Q: With CCC(CC)CNc1cccc(-c2ccnc3c(C(=O)c4cccs4)cnn23)c1 as the compound, how does the melting point read?
A: 192 to 194 °C

Q: Which melting point does the source give for O=Cc1ccccc1OCCOc1ccccc1C=O here?
A: 129 °C

Q: With COc1ccc(C(CC(=O)O)N2C(=O)C3C=C(Cl)C(Cl)=C(Cl)C3(Cl)C2=O)cc1 (configuration not stated) as the compound, how does the melting point read?
A: 236 to 238 °C

Q: For CC(C)Nc1cccnc1N1CCN(C(=O)c2cc3cc(NC(=O)N4CCN(C)CC4)ccc3[nH]2)CC1, which melting point is on record?
A: 200 °C

Q: Which melting point does the source give for COc1cc(O)c(C(=O)CC(=O)C(C)(C)C#N)c(OC)c1 here?
A: 112 to 113 °C

Q: With OCCNC(=S)Nc1cccc2ccoc12 as the compound, how does the melting point read?
A: 138 to 139 °C

Q: Which melting point does the source give for CNC(=O)c1nc(C)n2c1CN=C(c1ccccc1)c1cc(Cl)ccc1-2 here?
A: 260 to 263 °C

Q: For CCn1c([N+](=O)[O-])cnc1-c1nnc2ccc(N)nn12, which melting point is on record?
A: 218 to 222 °C

Q: With CC1(CCS)CN2CCCC(C(=O)O)N2C1=O (configuration not stated) as the compound, how does the melting point read?
A: 119 to 122 °C

Q: For CN(C)c1ccc(CNc2ncnc3c2ncn3C2OC(CO)C(O)C2O)cc1 (configuration not stated), which melting point is on record?
A: 170 to 171 °C

Q: Which melting point does the source give for CCOc1ccccc1OCCNC(C)Cc1ccc(OC)c(S(N)(=O)=O)c1 (configuration not stated) here?
A: 118 to 124 °C

Q: For C=CCON=Cc1nc(-c2ccc(Cl)c(Cl)c2Cl)cn1S(=O)(=O)N(C)C, which melting point is on record?
A: 87 to 88 °C

Q: Which melting point does the source give for CCOP(=O)(CCCCCCOc1ccc(C(=O)O)cc1)OCC here?
A: 215 to 216 °C

Q: For COc1ccc(Cl)c(Oc2c(Cl)ncnc2Cl)c1, which melting point is on record?
A: 88 to 89 °C

Q: Which melting point does the source give for CC(C)(C)C(NC(=O)c1cc(Cl)cc(Cl)c1)Nc1c(Nc2cncc(C(F)(F)F)c2)c(=O)c1=O (configuration not stated) here?
A: 233 to 234 °C

Q: Which melting point does the source give for COC(=O)NN=Cc1ccnc2ccccc12 here?
A: 83.5 °C

Q: For CCCCC(=O)c1c(-c2ccc3c(Br)c(OCC(=O)OCC)ccc3c2)oc2ccc(Cl)cc12, which melting point is on record?
A: 88 to 91 °C

Q: Which melting point does the source give for CN1CCN(c2n[nH]c(=S)n2C2CCc3ccccc3C2)CC1 (configuration not stated) here?
A: 217 to 218 °C

Q: For COC(=O)c1ccc(OCCC2CC(=O)N(c3ccc(Cl)cc3)C2)cc1 (configuration not stated), which melting point is on record?
A: 126 to 128 °C

Q: For N#CC(Nc1ccccc1[N+](=O)[O-])c1c(Cl)cccc1Cl (configuration not stated), which melting point is on record?
A: 195 °C

Q: For CCOc1ccc(Nc2nnc(Cc3ccncc3)c3ccccc23)cc1, which melting point is on record?
A: 223 to 224 °C

Q: Which melting point does the source give for Cc1ccc2c(NCc3ccc(NC(=O)C4CCN(Cc5ccccc5)CC4)cc3)nc(N3CCCCCC3)nc2c1 here?
A: 66 °C
